Consider 26 compounds from ChEMBL document CHEMBL1148992, “KB cell culture I. Role in discovery of antitumor agents from higher plants” (1982).

Structures are written as SMILES. In brackets after ≈: the same amount, converted by molar mass.

In one assay the test system is KB. The experiment in a line: Cytotoxicity against human KB cells. It is filed as functional. The settings on record: read-out: ED50 (the source's name).
For `COc1ccc2[nH]c3c(C)c4ccncc4c(C)c3c2c1`, the EC50 is 8.7 µg/mL (≈ 31.5 µM).

On to `COc1ccc2cc1Oc1ccc(cc1)C[C@H]1c3cc(c(OC)cc3CCN1C)Oc1c(OC)c(OC)cc3c1[C@@H](C2)N(C)CC3`, for which the EC50 amounted to 10 µg/mL (≈ 16.1 µM).

As to `COc1ccc2cc1Oc1ccc(cc1)C[C@H]1c3cc(c(OC)cc3CCN1C)Oc1c(OC)c(OC)cc3c1C(C2)N(C)CC3` (mixture of isomers), the EC50 turned out to be 22 µg/mL.

For `COc1ccc(C[C@H]2C(=O)N[C@@H](C)C(=O)N(C)[C@@H]3C(=O)N(C)[C@@H](Cc4ccc(O)c(c4)Oc4ccc(cc4)[C@@H]3O)C(=O)N[C@@H](C)C(=O)N[C@@H](C)C(=O)N2C)cc1` [BOUVARDIN], the EC50 is 8.8 µg/mL (≈ 11.4 µM).

`COC(=O)[C@@]12OC[C@]34[C@H]([C@@H](O)[C@@H]1O)[C@@]1(C)CC(=O)C(O)=C(C)[C@@H]1C[C@H]3OC(=O)[C@H](OC(=O)/C=C(\C)C(C)C)[C@@H]24` [BRUCEANTIN]: the EC50 was determined as 17 µg/mL (≈ 31 µM).

As for `CC[C@@]1(O)C(=O)OCc2c1cc1n(c2=O)Cc2cc3ccccc3nc2-1` [CAMPTOTHECIN], the EC50 was 2.3 µg/mL (≈ 6.6 µM).

On to `COc1cc2c(c(OC)c1OC)-c1ccc(OC)c(=O)cc1[C@@H](NC(C)=O)CC2` [COLCHICINE], for which the EC50 came out at 0.23 µg/mL (≈ 0.576 µM).

Regarding `CN[C@H]1CCc2cc(OC)c(OC)c(OC)c2-c2ccc(OC)c(=O)cc21` [DEMECOLCINE], the EC50 is less than 0.25 µg/mL.

As for `Cc1c2ccncc2c(C)c2c1[nH]c1ccccc12` [ELLIPTECINE], the EC50 turned out to be 0.36 µg/mL (≈ 1.46 µM).

Take `CC[C@H]1CN2CCc3cc(OC)c(OC)cc3[C@@H]2C[C@@H]1C[C@H]1NCCc2cc(OC)c(OC)cc21` [EMETINE]: the EC50 is less than 1 µg/mL.

As to `CC(=O)O[C@H]1C(=O)O[C@@H]2C[C@H]3C(C)=CC(=O)[C@@H](O)[C@]3(C)[C@H]3[C@]4(O)OC[C@]32[C@@H]1[C@@H](C)[C@H]4O` [HOLACANTHONE], the EC50 was found to be 6.8 µg/mL (≈ 15.6 µM).

`COc1cc2cc(c1Cl)N(C)C(=O)C[C@H](OC(=O)[C@H](C)N(C)C(C)=O)[C@]1(C)O[C@H]1[C@H](C)[C@@H]1C[C@@](O)(NC(=O)O1)[C@H](OC)/C=C/C=C(\C)C2` [MAYTANSINE]: the EC50 is 0.51 µg/mL (≈ 0.737 µM).

Turning to `C[C@H]1C(=O)O[C@@H]2CCN3CC=C(COC(=O)[C@](C)(O)[C@]1(C)O)[C@H]23` [MONOCROTALINE], the EC50 was greater than 100 µg/mL.

Regarding `COc1cc2c[n+](C)c3c4cc5c(cc4ccc3c2cc1OC)OCO5.[Cl-]` [NITIDINE CHLORIDE], the EC50 is 4.3 µg/mL.

In the case of `COC(=O)C[C@](O)(CCCC(C)(C)O)C(=O)O[C@@H]1C(OC)=C[C@]23CCCN2CCc2cc4c(cc2[C@H]13)OCO4` [OMACETAXINE MEPESUCCINATE], the EC50 turned out to be 3.9 µg/mL (≈ 7.15 µM).

For `CC(=O)O[C@H]1C(=O)[C@@]2(C)[C@H]([C@H](OC(=O)c3ccccc3)[C@]3(O)C[C@H](OC(=O)[C@H](O)[C@@H](NC(=O)c4ccccc4)c4ccccc4)C(C)=C1C3(C)C)[C@]1(OC(C)=O)CO[C@@H]1C[C@@H]2O` [PACLITAXEL], the EC50 stood at 8.9 µg/mL (≈ 10.4 µM).

For `COc1cc([C@@H]2c3cc4c(cc3[C@H](O)[C@H]3COC(=O)[C@H]23)OCO4)cc(OC)c1OC` [PODOFILOX], the EC50 was less than 1 µg/mL.

On to `COc1cc(C[C@H]2c3cc(OC)c(OC)cc3CCN2C)c(Oc2cc3c(cc2OC)-c2c(OC)c(OC)cc4c2[C@H](C3)N(C)CC4)cc1OC` [THALICARPINE], for which the EC50 worked out at 3.7 µg/mL (≈ 5.31 µM).

For `CC(C)[C@]12O[C@H]1[C@@H]1O[C@]13[C@]1(O[C@H]1C[C@H]1C4=C(C(=O)OC4)[C@@H](O)C[C@@]13C)[C@@H]2O` [TRIPDIOLIDE], the EC50 amounted to 2.8 µg/mL (≈ 7.44 µM).

For `CC(C)[C@]12O[C@H]1[C@@H]1O[C@]13[C@]1(O[C@H]1C[C@H]1C4=C(CC[C@@]13C)C(=O)OC4)[C@@H]2O` [TRIPTOLIDE], the EC50 was 2.6 µg/mL (≈ 7.21 µM).

Regarding `COc1cc2c3c(c4ccc(OC)c(OC)c4c2cc1OC)CN1CCC[C@@H]1C3` [TYLOCREBRINE], the EC50 is 0.013 µg/mL (≈ 0.033 µM).

Take `CC[C@]1(O)C[C@H]2CN(CCc3c([nH]c4ccccc34)[C@@](C(=O)OC)(c3cc4c(cc3OC)N(C=O)[C@H]3[C@@](O)(C(=O)OC)[C@H](OC(C)=O)[C@]5(CC)C=CCN6CC[C@]43[C@@H]65)C2)C1` [VINCRISTINE]: the EC50 turned out to be 1.3 µg/mL (≈ 1.58 µM).

The next assay deals with P388. The experiment in a line: In vivo cytotoxicity against mouse P388 cells relative to control.
Conditions: not given
Format: functional.
For the compound `COc1cc2c[n+](C)c3c4cc(OC)c(OC)cc4ccc3c2cc1OC`, the T/C (as a rule, the ratio of treated to control) amounted to 200%.

The compound `COc1cc2c(ccc3c4cc(OC)c(OC)cc4c[n+](C)c23)cc1O.[Cl-]` [FAGARONINE] gave a T/C of 270%.

The compound `Cc1cc2c(C(C)C)c(O)c(O)c(C=O)c2c(O)c1-c1c(C)cc2c(C(C)C)c(O)c(O)c(C=O)c2c1O` [GOSSYPOL] returned a T/C of 150%.

`CC(C)[C@](O)(C(=O)OCC1=CC[N+]2([O-])CC[C@@H](O)[C@@H]12)[C@H](C)O` (stereo partly specified) [INDICINE N-OXIDE] came in with a T/C of 262%.
